row,melting point [°C],SMILES
1,226 to 228,"Cc1nc2ccccc2c(=O)n1CCNc1ccc(SC(C)(C)C(=O)O)cc1 [Example 2, 2-Methyl-2-{4-[2-(2-methyl-4-oxo-4H-quinazolin-3-yl)-ethylamino]-phenylsulfanyl}-propionic acid]"
2,124 to 126,"CCc1nc2ccccc2c(=O)n1CCNc1ccc(SC(C)(C)C(=O)O)cc1 [Example 4, 2-{4-[2-(2-Ethyl-4-oxo-4H-quinazolin-3-yl)-ethylamino]-phenylsulfanyl}-2-methyl-propionic acid]"
3,162 to 164,"CCCc1nc2ccccc2c(=O)n1CCNc1ccc(SC(C)(C)C(=O)O)cc1 [Example 6, 2-Methyl-2-{4-[2-(4-oxo-2-propyl-4H-quinazolin-3-yl)-ethylamino]-phenylsulfanyl}-propionic acid]"
4,162 to 164,"Cc1nc2ccccc2c(=O)n1CCCNc1ccc(SC(C)(C)C(=O)O)cc1 [Example 8, 2-Methyl-2-{4-[3-(2-methyl-4-oxo-4H-quinazolin-3-yl)-propylamino]-phenylsulfanyl}-propionic acid]"
5,60 to 62,"CCc1nc2ccccc2c(=O)n1CCCNc1ccc(SC(C)(C)C(=O)O)cc1 [Example 10, 2-{4-[3-(2-Ethyl-4-oxo-4H-quinazolin-3-yl)-propylamino]-phenylsulfanyl}-2-methyl-propionic acid]"
6,100 to 102,"Cc1nc2ccccc2c(=O)n1CCCCNc1ccc(SC(C)(C)C(=O)O)cc1 [Example 14, 2-Methyl-2-{4-[4-(2-methyl-4-oxo-4H-quinazolin-3-yl)-butylamino]-phenylsulfanyl}-propionic acid]"
7,58 to 62,"CCc1nc2ccccc2c(=O)n1CCCCNc1ccc(SC(C)(C)C(=O)O)cc1 [Example 16, 2-{4-[4-(2-Ethyl-4-oxo-4H-quinazolin-3-yl)-butylamino]-phenylsulfanyl}-2-methyl-propionic acid]"
8,100 to 104,"CCCc1nc2ccccc2c(=O)n1CCCCNc1ccc(SC(C)(C)C(=O)O)cc1 [Example 18, 2-Methyl-2-{4-[4-(4-oxo-2-propyl-4H-quinazolin-3-yl)-butylamino]-phenylsulfanyl}-propionic acid]"
9,104 to 108,"CCCc1nn(C)c2c(=O)n(CCOc3ccc(NC(C)C(=O)OCC)cc3)c(CC)nc12 (stereo not drawn) [Example 19, 2-{4-[2-(5-Ethyl-1-methyl-7-oxo-3-propyl-1,7-dihydro-pyrazolo[4,3-d]pyrimidin-6-yl)-ethoxy]-phenylamino}-propionic acid ethyl ester]"
10,114 to 116,"CCOC(=O)C(C)(C)Sc1ccc(OCCn2c(C)nc3ccccc3c2=O)cc1 [Example 21, 2-Methyl-2-{4-[2-(2-methyl-4-oxo-4H-quinazolin-3-yl)-ethoxy]-phenylsulfanyl}-propionic acid ethyl ester]"
11,188 to 190,"Cc1nc2ccccc2c(=O)n1CCOc1ccc(SC(C)(C)C(=O)O)cc1 [Example 22, 2-Methyl-2-{4-[2-(2-methyl-4-oxo-4H-quinazolin-3-yl)-ethoxy]-phenylsulfanyl}-propionic acid]"
12,156 to 158,"CCc1nc2ccccc2c(=O)n1CCCOc1ccc(SC(C)(C)C(=O)O)cc1 [Example 24, 2-{4-[3-(2-Ethyl-4-oxo-4H-quinazolin-3-yl)-propoxy]-phenylsulfanyl}-2-methyl-propionic acid]"
13,162 to 164,"CCOC(=O)C(C)(C)Sc1ccc(OCCCn2c(C)nc3ccccc3c2=O)cc1 [Example 25, 2-Methyl-2-{4-[3-(2-methyl-4-oxo-4H-quinazolin-3-yl)-propoxy]-phenylsulfanyl}-propionic acid ethyl ester]"
14,144 to 146,"Cc1nc2ccccc2c(=O)n1CCCOc1ccc(SC(C)(C)C(=O)O)cc1 [Example 26, 2-Methyl-2-{4-[3-(2-methyl-4-oxo-4H-quinazolin-3-yl)-propoxy]-phenylsulfanyl}-propionic acid]"
15,118 to 120,"CCCc1nn(CC)c2c(=O)n(CCCOc3ccc(SC(C)(C)C(=O)O)cc3)c(C)nc12 [Example 28, 2-{4-[3-(1-Ethyl-5-methyl-7-oxo-3-propyl-1,7-dihydro-pyrazolo[4,3-d]pyrimidin-6-yl)-propoxy]-phenylsulfanyl}-2-methyl-propionic acid]"
16,96 to 98,"CCCc1nn(CC)c2c(=O)n(CCCOc3ccc(SC(C)(C)C(=O)O)cc3)c(CC)nc12 [Example 30, 2-{4-[3-(1,5-Diethyl-7-oxo-3-propyl-1,7-dihydro-pyrazolo[4,3-d]pyrimidin-6-yl)-propoxy]-phenylsulfanyl}-2-methyl-propionic acid]"
17,106 to 108,"CCCc1nn(C)c2c(=O)n(CCOc3ccc(SC(C)(C)C(=O)OCC)cc3)c(C)nc12 [Example 31, 2-{4-[2-(1,5-Dimethyl-7-oxo-3-propyl-1,7-dihydro-pyrazolo[4,3-d]pyrimidin-6-yl)-ethoxy]-phenylsulfanyl}-2-methyl-propionic acid ethyl ester]"
18,182 to 184,"CCCc1nn(C)c2c(=O)n(CCOc3ccc(SC(C)(C)C(=O)O)cc3)c(C)nc12 [Example 32, 2-{4-[2-(1,5-Dimethyl-7-oxo-3-propyl-1,7-dihydro-pyrazolo[4,3-d]pyrimidin-6-yl)-ethoxy]-phenylsulfanyl}-2-methyl-propionic acid]"
19,120 to 122,"CCOC(=O)C(C)(C)Sc1ccc(OCCn2c(CC)nc3ccccc3c2=O)cc1 [Example 33, 2-{4-[2-(2-Ethyl-4-oxo-4H-quinazolin-3-yl)-ethoxy]-phenylsulfanyl}-2-methyl-propionic acid ethyl ester]"
20,148 to 150,"CCc1nc2ccccc2c(=O)n1CCOc1ccc(SC(C)(C)C(=O)O)cc1 [Example 34, 2-{4-[2-(2-Ethyl-4-oxo-4H-quinazolin-3-yl)-ethoxy]-phenylsulfanyl}-2-methyl-propionic acid]"
21,52 to 54,"CCCc1nn(C)c2c(=O)n(CCCOc3ccc(SC(C)(C)C(=O)OCC)cc3)c(C)nc12 [Example 35, 2-{4-[3-(1,5-Dimethyl-7-oxo-3-propyl-1,7-dihydro-pyrazolo[4,3-d]pyrimidin-6-yl)-propoxy]-phenylsulfanyl}-2-methyl-propionic acid ethyl ester]"
22,52 to 54,"CCCc1nn(C)c2c(=O)n(CCCOc3ccc(SC(C)(C)C(=O)OCC)cc3)c(CC)nc12 [Example 39, 2-{4-[3-(5-Ethyl-1-methyl-7-oxo-3-propyl-1,7-dihydro-pyrazolo[4,3-d]pyrimidin-6-yl)-propoxy]-phenylsulfanyl}-2-methyl-propionic acid ethyl ester]"
23,115 to 117,"CCCc1nn(C)c2c(=O)n(CCCOc3ccc(SC(C)(C)C(=O)O)cc3)c(CC)nc12 [Example 40, 2-{4-[3-(5-Ethyl-1-methyl-7-oxo-3-propyl-1,7-dihydro-pyrazolo[4,3-d]pyrimidin-6-yl)-propoxy]-phenylsulfanyl}-2-methyl-propionic acid]"
24,105 to 107,"CCCc1nn(C)c2c(=O)n(CCNc3ccc(SC(C)(C)C(=O)OCC)cc3)c(CC)nc12 [Example 41, 2-{4-[2-(5-Ethyl-1-methyl-7-oxo-3-propyl-1,7-dihydro-pyrazolo[4,3-d]pyrimidin-6-yl)-ethylamino]-phenylsulfanyl}-2-methyl-propionic acid ethyl ester]"

# From patent US20080114005A1, “Fibrate Compounds Having Ppar Agonist Activity” (Dr. Reddy's Laboratories Limited, priority 2004, published 2008)
